Experimental data published in PubChem BioAssay AID330 (DTP/NCI, 2004).
Values joined by “and” are separate entries in the source; they are usually repeats but may differ in a detail not shown here. Equal values may be shown once. Inconclusive results and toxic doses are left out.

System: P388 leukemia ip, CD2F1 mice, survival T/C
Assay: NCI In Vivo Anticancer Drug Screen. Data for tumor model P388 Leukemia (intraperitoneal) in CD2F1 (CDF1) mice
Conditions: endpoint: median survival time, higher = longer survival
Procedure, shortened: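 Mice carrying the transplanted tumor received test compound or vehicle. Survival was recorded in each group, and the value is the treated-group measurement divided by that of the vehicle-treated control group.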

[1] = dose: 50.0 mg/kg/injection, schedule: Q01DX005 (ip), vehicle: saline
[2] = dose: 12.5 mg/kg/injection, schedule: Q01DX009 (ip), vehicle: saline with Tween-80
[3] = dose: 25.0 mg/kg/injection, schedule: Q01DX009 (ip), vehicle: saline with Tween-80
[4] = dose: 50.0 mg/kg/injection, schedule: Q01DX005 (ip), vehicle: saline with Tween-80
[5] = dose: 50.0 mg/kg/injection, schedule: Q01DX009 (ip), vehicle: saline with Tween-80
[6] = dose: 100.0 mg/kg/injection, schedule: Q01DX005 (ip), vehicle: saline with Tween-80
[7] = dose: 100.0 mg/kg/injection, schedule: Q01DX009 (ip), vehicle: saline with Tween-80
[8] = dose: 60.0 mg/kg/injection, schedule: Q01DX005 (ip), vehicle: saline with Tween-80
[9] = dose: 120.0 mg/kg/injection, schedule: Q01DX005 (ip), vehicle: saline with Tween-80

**Q.** `c1ccc2c3[n+](ccc2c1)CCC[n+]1ccc2ccccc2c1-3` was tested. Which T/C (dose: 3.12 mg/kg/injection, schedule: Q01DX001 (ip), vehicle: saline) did it give?
**A.** 106 % of control

**Q.** What about the T/C (dose: 6.25 mg/kg/injection, schedule: Q01DX001 (ip), vehicle: saline) of the same compound?
**A.** 106 % of control

**Q.** And the T/C (dose: 12.5 mg/kg/injection, schedule: Q01DX001 (ip), vehicle: saline)?
**A.** 92 % of control

**Q.** For `CCOC(=O)Nc1cc(NC/C(=N/O)c2ccc(OC)cc2)c([N+](=O)[O-])c(N)n1`, which T/C (dose: 12.5 mg/kg/injection, schedule: Q01DX005 (ip), vehicle: saline) is on record?
**A.** 98 % of control

**Q.** What about the T/C (dose: 25.0 mg/kg/injection, schedule: Q01DX005 (ip), vehicle: saline) of the same compound?
**A.** 94 % of control

**Q.** And the T/C [1]?
**A.** 94 % of control

**Q.** Which results are given for `CC(=O)C1(O)Cc2c(O)c3c(c(O)c2C(OC2CC(N)C(O)C(C)O2)C1)C(=O)c1ccccc1C3=O` (stereo not given)?
**A.** T/C (dose: 0.03 mg/kg/injection, schedule: Q01DX009 (ip), vehicle: water): 116 % of control; T/C (dose: 0.1 mg/kg/injection, schedule: Q01DX009 (ip), vehicle: water): 150 % of control and 155 % of control and 158 % of control; T/C (dose: 0.12 mg/kg/injection, schedule: Q01DX005 (ip), vehicle: water): 151 % of control; T/C (dose: 0.15 mg/kg/injection, schedule: Q04DX003 (ip), vehicle: water): 106 % of control; T/C (dose: 0.2 mg/kg/injection, schedule: Q01DX009 (ip), vehicle: water): 167 % of control and 171 % of control and 183 % of control; T/C (dose: 0.21 mg/kg/injection, schedule: Q04DX003 (ip), vehicle: water): 166 % of control; T/C (dose: 0.25 mg/kg/injection, schedule: Q01DX005 (ip), vehicle: water): 164 % of control; T/C (dose: 0.3 mg/kg/injection, schedule: Q04DX003 (ip), vehicle: water): 114 % of control; T/C (dose: 0.36 mg/kg/injection, schedule: Q04DX003 (ip), vehicle: water): 170 % of control; T/C (dose: 0.39 mg/kg/injection, schedule: Q01DX009 (ip), vehicle: water): 170 % of control; T/C (dose: 0.4 mg/kg/injection, schedule: Q01DX009 (ip), vehicle: water): 205 % of control; T/C (dose: 0.5 mg/kg/injection, schedule: Q01DX005 (ip), vehicle: water): 180 % of control; T/C (dose: 0.5 mg/kg/injection, schedule: Q01DX005 (oral), vehicle: water): 104 % of control; T/C (dose: 0.6 mg/kg/injection, schedule: Q04DX003 (ip), vehicle: water): 118 % of control; T/C (dose: 0.78 mg/kg/injection, schedule: Q01DX009 (ip), vehicle: water): 173 % of control; T/C (dose: 1.0 mg/kg/injection, schedule: Q01DX005 (ip), vehicle: water): 114 % of control; T/C (dose: 1.0 mg/kg/injection, schedule: Q01DX005 (oral), vehicle: water): 107 % of control; T/C (dose: 1.3 mg/kg/injection, schedule: Q01DX001 (ip), vehicle: water): 97 % of control; T/C (dose: 1.8 mg/kg/injection, schedule: Q01DX001 (ip), vehicle: water): 97 % of control; T/C (dose: 2.0 mg/kg/injection, schedule: Q01DX005 (oral), vehicle: water): 112 % of control; T/C (dose: 2.4 mg/kg/injection, schedule: Q04DX003 (ip), vehicle: water): 152 % of control and 174 % of control; T/C (dose: 4.0 mg/kg/injection, schedule: Q01DX005 (oral), vehicle: water): 152 % of control; T/C (dose: 4.8 mg/kg/injection, schedule: Q04DX003 (ip), vehicle: water): 102 % of control and 106 % of control; T/C (dose: 8.0 mg/kg/injection, schedule: Q01DX005 (oral), vehicle: water): 107 % of control; T/C (dose: 9.6 mg/kg/injection, schedule: Q04DX003 (ip), vehicle: water): 96 % of control

**Q.** What does the source list for `CS(=O)(=O)OCCBr`?
**A.** T/C [2]: 105 % of control; T/C (dose: 25.0 mg/kg/injection, schedule: Q01DX005 (ip), vehicle: saline with Tween-80): 108 % of control; T/C [3]: 105 % of control; T/C [4]: 110 % of control; T/C [5]: 114 % of control; T/C (dose: 100.0 mg/kg/injection, schedule: Q01DX001 (ip), vehicle: saline with Tween-80): 103 % of control; T/C [6]: 106 % of control; T/C [7]: 116 % of control

**Q.** For `CN1C(=O)CN2CCc3ccccc3C2c2cc(Cl)ccc21` (stereo not given), which T/C [4] is on record?
**A.** 92 % of control

**Q.** And the T/C [6]?
**A.** 98 % of control

**Q.** And the T/C (dose: 200.0 mg/kg/injection, schedule: Q01DX005 (ip), vehicle: saline with Tween-80)?
**A.** 98 % of control

**Q.** Which T/C (dose: 25.0 mg/kg/injection, schedule: Q04DX003 (ip), vehicle: saline sonified) does the source give for `Cn1cnnc1[N+](=O)[O-]` here?
**A.** 100 % of control

**Q.** What about the T/C (dose: 50.0 mg/kg/injection, schedule: Q04DX003 (ip), vehicle: saline sonified) of the same compound?
**A.** 95 % of control

**Q.** What about the T/C (dose: 100.0 mg/kg/injection, schedule: Q04DX003 (ip), vehicle: saline sonified) of the same compound?
**A.** 90 % of control

**Q.** How did the T/C (dose: 7.5 mg/kg/injection, schedule: Q01DX005 (ip), vehicle: saline with Tween-80) turn out when `NNc1ccc(Cl)nn1` was run?
**A.** 101 % of control

**Q.** What about the T/C (dose: 15.0 mg/kg/injection, schedule: Q01DX005 (ip), vehicle: saline with Tween-80) of the same compound?
**A.** 99 % of control

**Q.** `COc1cccc(CN2CCCN(/N=C/c3c4c(O)c5c(O)c(C)c6c(c5c3O)C(=O)C(C)(O/C=C/C(OC)C(C)C(OC(C)=O)C(C)C(O)C(C)C(O)C(C)/C=C/C=C(/C)C(=O)N4)O6)CC2)c1` (stereo not given) was tested. Which T/C [2] did it give?
**A.** 108 % of control

**Q.** What about the T/C [3] of the same compound?
**A.** 109 % of control

**Q.** What about the T/C [5] of the same compound?
**A.** 103 % of control and 108 % of control

**Q.** What about the T/C [7] of the same compound?
**A.** 115 % of control

**Q.** `CSC1=Nc2ccccc2SC(c2ccccc2)C1c1ccccc1` (stereo not given) was tested. Which T/C (dose: 50.0 mg/kg/injection, schedule: Q01DX005 (ip), vehicle: Klucel (hydroxypropylcellulose) (HPC)) did it give?
**A.** 99 % of control

**Q.** And the T/C (dose: 100.0 mg/kg/injection, schedule: Q01DX005 (ip), vehicle: Klucel (hydroxypropylcellulose) (HPC))?
**A.** 95 % of control

**Q.** And the T/C (dose: 200.0 mg/kg/injection, schedule: Q01DX005 (ip), vehicle: Klucel (hydroxypropylcellulose) (HPC))?
**A.** 96 % of control

**Q.** Which T/C (dose: 50.0 mg/kg/injection, schedule: Q01DX001 (ip), vehicle: Klucel (hydroxypropylcellulose) (HPC)) does the source give for `COc1ccc(/C=C/C(=O)c2ccccc(=O)c2O)cc1` here?
**A.** 106 % of control

**Q.** What about the T/C (dose: 100.0 mg/kg/injection, schedule: Q01DX001 (ip), vehicle: Klucel (hydroxypropylcellulose) (HPC)) of the same compound?
**A.** 101 % of control

**Q.** And the T/C (dose: 200.0 mg/kg/injection, schedule: Q01DX001 (ip), vehicle: Klucel (hydroxypropylcellulose) (HPC))?
**A.** 105 % of control

**Q.** What about the T/C (dose: 400.0 mg/kg/injection, schedule: Q01DX001 (ip), vehicle: Klucel (hydroxypropylcellulose) (HPC)) of the same compound?
**A.** 92 % of control

**Q.** `COc1ccc2nc(Cl)c(Br)c(C)c2c1` was tested. Which T/C [8] did it give?
**A.** 95 % of control

**Q.** And the T/C [9]?
**A.** 92 % of control

**Q.** And the T/C (dose: 240.0 mg/kg/injection, schedule: Q01DX005 (ip), vehicle: saline with Tween-80)?
**A.** 90 % of control

**Q.** Which T/C (dose: 100.0 mg/kg/injection, schedule: Q04DX003 (ip), vehicle: Klucel (hydroxypropylcellulose) (HPC)) does the source give for `C=C(C)C1CCC=CC(=O)C1` (stereo not given) here?
**A.** 107 % of control

**Q.** What about the T/C (dose: 200.0 mg/kg/injection, schedule: Q04DX003 (ip), vehicle: Klucel (hydroxypropylcellulose) (HPC)) of the same compound?
**A.** 116 % of control

**Q.** Which T/C (dose: 1.5 mg/kg/injection, schedule: Q01DX005 (ip), vehicle: saline + alcohol) does the source give for `CC(=O)c1c(C)cc2cc(O)cc(OC3OC(CO)C(O)C(O)C3O)c2c1O` (stereo not given) here?
**A.** 96 % of control

**Q.** What about the T/C (dose: 3.0 mg/kg/injection, schedule: Q01DX005 (ip), vehicle: saline + alcohol) of the same compound?
**A.** 103 % of control

**Q.** What about the T/C (dose: 6.0 mg/kg/injection, schedule: Q01DX005 (ip), vehicle: saline + alcohol) of the same compound?
**A.** 92 % of control

**Q.** And the T/C (dose: 12.0 mg/kg/injection, schedule: Q01DX005 (ip), vehicle: saline + alcohol)?
**A.** 108 % of control and 94 % of control

**Q.** And the T/C (dose: 24.0 mg/kg/injection, schedule: Q01DX005 (ip), vehicle: saline + alcohol)?
**A.** 100 % of control

**Q.** And the T/C (dose: 48.0 mg/kg/injection, schedule: Q01DX005 (ip), vehicle: saline + alcohol)?
**A.** 99 % of control

**Q.** `N#CC(NCc1ccccc1)c1ccccc1` (stereo not given) was tested. Which T/C [8] did it give?
**A.** 99 % of control

**Q.** And the T/C [9]?
**A.** 100 % of control

**Q.** Which results are given for `CC(C)(C)OC(=O)N1CCCC1C(=O)N1CCCC1C(=O)Oc1ccccc1` (stereo not given)?
**A.** T/C [1]: 100 % of control; T/C (dose: 100.0 mg/kg/injection, schedule: Q01DX005 (ip), vehicle: saline): 100 % of control; T/C (dose: 200.0 mg/kg/injection, schedule: Q01DX005 (ip), vehicle: saline): 100 % of control

**Q.** Which T/C (dose: 11.0 mg/kg/injection, schedule: Q01DX009 (ip), vehicle: saline with Tween-80) does the source give for `CN(C)CCOc1ccc2c(c1)C/C(=C/c1ncc([N+](=O)[O-])n1C)C2=O` here?
**A.** 124 % of control

**Q.** What about the T/C (dose: 15.0 mg/kg/injection, schedule: Q01DX009 (ip), vehicle: saline with Tween-80) of the same compound?
**A.** 109 % of control and 117 % of control

**Q.** And the T/C (dose: 22.0 mg/kg/injection, schedule: Q01DX009 (ip), vehicle: saline with Tween-80)?
**A.** 124 % of control

**Q.** And the T/C (dose: 30.0 mg/kg/injection, schedule: Q01DX009 (ip), vehicle: saline with Tween-80)?
**A.** 119 % of control

**Q.** What about the T/C (dose: 60.0 mg/kg/injection, schedule: Q01DX009 (ip), vehicle: saline with Tween-80) of the same compound?
**A.** 117 % of control

**Q.** And the T/C (dose: 180.0 mg/kg/injection, schedule: Q01DX009 (ip), vehicle: saline with Tween-80)?
**A.** 87 % of control
